Measurements taken from patent publication US5364764A, “Fluorescent chloramphenicol derivatives for determination of chloramphenicol acetyltransferase activity” (Molecular Probes, Inc., priority 1992, dated 1994).

Key:
[1] = target: T1, purified CAT (chloramphenicol acetyltransferase) (Escherichia coli, UniProt P62577); assay: Procedure for comparing activity of fluorescent substrates (TLC, conversion to acetylated products); type: biochemical; conditions: 0.8 U purified CAT, acetyl CoA, 1M TRIS pH 7.4, 37° C., 1 hour
T1 construct: the pSV2cat reporter type
T1 sequence (P62577 whole entry, looked up): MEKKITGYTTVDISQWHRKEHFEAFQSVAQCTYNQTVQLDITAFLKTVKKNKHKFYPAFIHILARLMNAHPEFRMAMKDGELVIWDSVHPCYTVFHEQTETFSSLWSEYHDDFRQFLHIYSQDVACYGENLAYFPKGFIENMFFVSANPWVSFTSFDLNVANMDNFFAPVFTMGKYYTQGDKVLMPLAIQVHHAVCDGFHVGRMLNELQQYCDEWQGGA
Description: To a solution of 0.5 mg acetyl CoA in 112 μL of 1M TRIS pH 7.4 was added 7 μL of a solution of 440 μM fluorescent CAT substrate in ethanol. Then 0.8 U of purified CAT in 1 μL of 1 M TRIS (pH 7.4) was added and the solution was incubated at 37° C. for 1 hour. The reaction mixture was extracted with 0.7 mL of ethyl acetate, and the solvent was removed under vacuum. The residue was dissolved in 14 μL of ethyl acetate, spotted on the pre-absorbent area of Whatman LK6 silica-gel TLC plates and developed with 10% methanol in chloroform. A control, run as above but with no enzyme present, was spotted adjacent to each reaction mixture.
Qualitative estimates of substrate activity of each fluorescent derivative were made by examination of the plates for conversion to acetylated products.

[2] = target: T1, purified CAT (chloramphenicol acetyltransferase); assay: Relative velocity vs chloramphenicol; type: biochemical; conditions: first ten minutes, substrate 33.2 μM, TRIS pH 7.4, 0.4 mg Acetyl CoA, 0.8U purified enzyme
Description: The velocity during the first ten minutes at a substrate concentration of 33.2 μM was determined using Compound 6 and ^14 C chloramphenicol. The reactions were run in 100 μL final volume TRIS pH 7.4 with 0.4 mg of Acetyl CoA and 0.8U of purified enzyme. The concentrations of acetylated products after ten minutes were determined by extraction from the TLC plates and measuring spectrophotometrically, in the case of Compound 6, and by counting radioactivity in the case of ^14 C chloramphenicol. The velocity during the first ten minutes was assumed to be very close to Vmax. The velocity of Compound 6 was 0.66 of the velocity of ^14 C chloramphenicol.

[3] = Solubility in aqueous and nonaqueous solvents; type: physicochemical; conditions: compared with the corresponding fluorescein derivative 36
[4] = system: chloramphenicol acetyltransferase (CAT); conditions: reported by Shaw et al., J. Biol. Chem. 242(4):687 (1967); read-out: Km (Michaelis-Menten constant) for chloramphenicol; cited from earlier work

Row | Compound | Qualitative estimate of substrate activity (reaction velocity, conversion to acetylated products) [1] | Velocity relative to the velocity of 14C chloramphenicol [2] | Solubility in ethyl acetate [3] | Km [4]
1 | CC(=O)Nc1ccc([C@@H](O)[C@@H](CO)NC(=O)CCCNC(=O)CC2=CC(C)=[N+]3C2=Cc2c(C)cc(C)n2[B-]3(F)F)cc1 [Compound 6] | highest reaction velocities | 0.66 | much more soluble in ethyl acetate | –
2 | CN(C)c1ccc2c(CC(=O)NCCCC(=O)N[C@H](CO)[C@H](O)c3ccc([N+](=O)[O-])cc3)cc(=O)oc2c1 [Compound 21] | highest reaction velocities | – | – | –
3 | CC(=O)Nc1ccc([C@@H](O)[C@@H](CO)NC(=O)CCCNC(=O)Cc2cc(=O)oc3cc(N(C)C)ccc23)cc1 [Compound 23] | highest reaction velocities | – | – | –
4 | Nc1ccc([C@@H](O)[C@@H](CO)NC(=O)CCCCCNc2ccc([N+](=O)[O-])c3nonc23)cc1 [Compound 28] | highest reaction velocities | – | – | –
5 | O=C(N[C@H](CO)[C@H](O)c1ccc([N+](=O)[O-])cc1)C(Cl)Cl [chloramphenicol] | – | – | – | ~15 µM
